# Test results from US5504190A, “Equimolar multiple oligomer mixtures, especially oligopeptide mixtures” (priority 1994, dated 1996).
# Like-named read-outs stand apart in the source and are kept apart here. Peptide text beside a SMILES is read from it.
# How the values were obtained:
# [1] = test system: Vero (monkey kidney) cell monolayers; assay type: cell-based
# [2] = test system: Herpes Simplex Virus Type 1 (HSV-1); experiment: HSV-1 plaque assay on Vero cell monolayers; assay type: cell-based; conditions: Table 10
# Method: The screenings utilized a plaque assay in which 24-well plates containing Vero (monkey kidney) cell monolayers were overlaid with 400 μg/ml of each peptide or mixture in M-199V (medium and newborn calf serum). The plates were incubated for two hours at 37° C.
# Each well was thereafter aspirated and immediately overlaid with 400 μg of peptide or mixture in DMEM-O (Dulbeco's modified Eagle's medium and pooled human gamma globulin) and incubated for 48 hours. […] At 48 hours, the plate wells were aspirated, rinsed, fixed and stained. Plaque formation, if present, was tallied and recorded.
# The PFU's per well of six controls were averaged and represent 100 percent plaque formation at approximately 50 PFU's per well. The average PFU's per screened peptide or mixture (duplicate wells) quantitatively represented percent viral inhibition of plaque formation or infection. For example, a count of 10 PFU's of a screened peptide compared to the control of 50 PFU's would represent 20 percent plaque formation and 80 percent plaque inhibition.
# mAb 19B10 = experiment: competitive ELISA, inhibition of mAb 19B10 binding to plate-adsorbed peptide SEQ ID NO:89; conditions: as the positions were defined
# Excerpt: The antigenic determinant recognized by mAb 19B10 has the sequence Asp-Val-Pro-Asp-Tyr-Ala (SEQ ID NO:88). […].
# Oligopeptide sets were screened in the general manner discussed previously, except that rather than using 400 mixture sets whose first two positions were defined and whose last four were equimolar mixtures for the first screen, 324 such N-acetyl C-amide sets were used based on mixtures of eighteen amino acids. Tryptophan and cysteine were not included with these mixture.
# [3] = molecular target: monoclonal antibody (mAb) 125-10F3; experiment: competitive ELISA, inhibition of mAb 125-10F3 binding to plate-adsorbed polypeptide SEQ ID NO:1
# Excerpt: Monoclonal antibody (mAb) 125-10F3 was used in these studies, which binds specifically to a 13-residue polypeptide […](SEQ ID NO:1) Appel et al., J. Immunol., 144:976-983 (1990)!. The antigenic determinant recognized by the mAb is Pro-Tyr-Pro-Asn-Leu-Ser (SEQ ID NO:2), determined previously using individual omission analogs of the polypeptide as is seen in FIG. 2.
# The peptide library was screened utilizing a competitive ELISA system that measured the inhibition in solution of the binding of the mAb to polypeptide SEQ ID NO:1 adsorbed to an assay plate by each individual element of the synthetic combinatorial library. […] Screening data for an exemplary eighteen of the 400 sets are shown in FIG. 4, with arrows at the two best binding sequences.
# The concentration of the inhibiting oligopeptide sets at which 50 percent of the mAb was inhibited in its binding to the polypeptide (IC-50) was determined.
# [4] = test system: Staphylococcus aureus (ATCC 29213); experiment: microbe, parasite or virus in culture; conditions: Tables 3 and 4
# Method: Escherichia coli (ATCC 25922) was used as Gram-negative (-) and Staphylococcus aureus (ATCC 29213) as Gram-positive (+) bacteria. Bacteria were grown overnight (about 18 hours) at 37° C. in Mueller-Hinton (MH) broth. This culture was reinoculated and incubated at 37° C. to reach the exponential phase of bacteria growth; i.e., a final bacterial suspension containing about 10^5 to 5×10^5 colony-forming units (CFU)/ml. The concentration of cells was established by plating 100 μl of different dilutions of the culture solution (e.g., 10^-2, 10^-3 and 10^-4) onto solid agar plates. Following an overnight (about 18 hours) incubation at 37° C., the CFU thus formed were counted on each agar plate.
# 96-Well tissue culture plates were utilized, with eight wells per plate containing only medium as control blanks, whereas eight other wells contained medium plus cells as a positive growth control. These controls were used to detect possible medium contamination and to provide a measure of uninhibited growth of the microorganisms.
# For initial screening studies, oligopeptide sets were added to the bacterial suspension to reach a final concentration of 1 mg/ml.
# The plates were incubated overnight (about 18 hours) at 37° C., and the optical density (OD) determined at 620 nm after different times of incubation.
# human red blood cells = assay type: cell-based
# Method: Assays were carried out in 96-well culture tissue plates. Four wells per plate contained 125 μl of a non-peptide positive control of the surfactant Triton X-100 (poly)oxyethanol (9) octyl phenyl ether; 1 percent in deionized water!, and four wells per plate contained 115 μl of a control blank of phosphate-buffered saline (PBS). The hemolytic peptide melittin was used as comparative control. The controls served to detect possible contamination and to calculate the percent hemolysis of each peptide.
# Human red blood cells (RBC's) were washed with PBS and centrifuged to separate them from the serum. The cells are then resuspended in PBS to a final suspension of 0.5 percent RBC. This suspension (125 μl) was added to the peptide mixture and control solutions. The plates were incubated at 37° C. for one hour and centrifuged at 2800 rpm for five minutes. The release of hemoglobin resulting from the cell lysis was determined by measuring the OD at 414 nm of 100 μl of the supernatant.
# [5] = test system: Candida albicans ATCC 10231; experiment: antifungal assay, growth inhibition of C. albicans (OD 620 nm); assay type: cell-based; conditions: Table 9
# Method: Antifungal studies were carried out Candida albicans ATCC 10231 as the target microbe. The yeast culture was spread onto YM agar plates and incubated at 30° C. for 48 hours. Three colonies of this culture (about 1 mm in diameter each) were then inoculated in 5 ml of 1 X PBS solution. The suspension was vortexed and diluted 10-fold in YM broth, for an approximate final concentration of 10^5 to 5×10^5 CFU (colony forming units)/ml.
# Actual concentrations of yeast cultures were determined by plating 100 μl of different solutions of the culture solution (10^-3, 10^-4 and 10^-5) onto solid YM agar plates. After 48 hours of incubation at 30° C., CFU formed were counted from each plate.
# The assays were carried out in 96-well tissue culture plates. Eight wells containing only medium of YM broth served as negative controls, whereas eight wells containing medium and yeast culture served as positive controls. These controls were used to detect possible medium contamination and to provide a measure of uninhibited growth of the yeast.
# For screening studies, oligopeptide mixtures were added to the yeast suspension in duplicates to reach a final concentration of 1.5 mg/ml. […] The plates were incubated over a period of 48 hours at 30° C., and the optical density (OD) at 24 and 48 hours was determined at 620 nm.
# [6] = later study completing the Ac-Tyr-Pro series ("in this study"), read-out: IC-50
Molecule,Toxic Concentration [1],concentration for 100 Percent Inhibition [2],further results
CC(=O)N[C@@H](CCCNC(=N)N)C(=O)N[C@@H](CCCNC(=N)N)C(=O)N[C@@H](Cc1c[nH]c2ccccc12)C(=O)N[C@@H](Cc1c[nH]c2ccccc12)C(=O)N[C@@H](CS)C(=O)N[C@@H](CS)C(N)=O [RRWWCC] (Ac-RRWWCC-NH2),10 µg/mL,1 µg/mL,–
Ac-DVPDYA-NH2 [Ac-Asp-Val-Pro-Asp-Tyr-Ala-NH2],–,–,IC50 (mAb 19B10): 30 nM
Ac-PYPNLS-NH2 [Ac-Pro-Tyr-Pro-Asn-Leu-Ser-NH2],–,–,"IC50 ([3]; iterative screening and control study of Example 2, read-out: IC-50 (concentration at which 50 percent of the mAb was inhibited in its binding to the polypeptide)): 10 nM; IC50 [3, 6]: 40 nM"
Ac-RRWWCA-NH2 [RRWWCA],25 µg/mL,1 µg/mL,IC-50 [4]: 8.4 µg/mL; MIC [4]: 9 to 18 µg/mL
Ac-RRWWCF-NH2 [RRWWCF],10 µg/mL,5 µg/mL,–
Ac-RRWWCG-NH2 [RRWWCG],10 µg/mL,1 µg/mL,–
Ac-RRWWCK-NH2 [RRWWCK],10 µg/mL,5 µg/mL,IC-50 [4]: 5.5 µg/mL; MIC [4]: 4.8 to 9.6 µg/mL; HD-50 (human red blood cells): 249 µg/mL
Ac-RRWWCM-NH2 [RRWWCM],10 µg/mL,1 µg/mL,–
Ac-RRWWRR-NH2 [RRWWRR],25 µg/mL,1 µg/mL,IC-50 [5]: 27.6 µg/mL; MIC [5]: 30 to 42 µg/mL
Ac-RRWWRW-NH2 [RRWWRW],25 µg/mL,1 µg/mL,–
Ac-YPNLSN-NH2 [Ac-Tyr-Pro-Asn-Leu-Ser-Asn-NH2],–,–,"IC50 [3, 6]: 150 nM; IC-50 value difference between the mixture (positions 1-5 of SEQ ID NO:15, position 6 mixture) and the single peptide ([3]; mixture inhibited better): about a factor of four"
